The record followed here is patent publication US11339192B2, “Bicyclic peptidyl inhibitors” (priority 2017, dated 2022).

Data set [1] has as its system HeLa cells. Nature of the data set: Cellular uptake of FITC-labeled peptides by flow cytometry. The following applies: for Permeability (%), cellular uptake efficiency: FITC-labeled peptide 5 μM, 2 h, relative to CPP1 (100%); for Permeability (%), cellular uptake efficiency / cellular entry efficiency (in words): HeLa cells; for cellular entry efficiency (in words): flow cytometry.
Experimental: (§1) For flow cytometry analysis, HeLa cells were seeded into 12-well plates (1.5×10^5 cells per well) 24 hours before treatment. The next day, 5 μM FITC-labeled peptide in DMEM containing 10% FBS was added to each well and allowed to incubate at 37° c. for 2 hours. […] This washing process was repeated once to remove any free compound and left over trypsin. The washed pellet was resuspended in DPBS with 1% FBS and analyzed on a BD LSR II flow cytometer. Data presented were the mean±SD of three independent experiments.

Data set [2] concerns the target T1, NEMO-IKKβ interaction (Homo sapiens, UniProt Q9Y6K9).
T1 construct: cells were transformed with a pGEX4T3-NEMO(1-196) plasmid; made in house; host or cells: Escherichia coli BL21(DE3)
Nature of the data set: HTRF assay of inhibition of the NEMO-IKKβ interaction. In kind it is binding. The following applies: for NEMO-binding affinity on Ala substitution (in words): alanine scan of peptide 7; for fold lower NEMO-binding affinity / potency: relative to peptide 7. For orientation: Time-resolved FRET reads energy transfer from a long-lived donor to a nearby acceptor.
Experimental: Recombinant GST-NEMO (20 nM), biotin-IKKβKK/RR(701-745) (50 nM), streptavidin labeled with d2 acceptor (2.5 μg/mL), anti-GST monoclonal antibody labeled with Tb donor (2.5 μg/mL), and varying concentrations of peptide (O-100 μM) were mixed in PBS containing 1 mM TCEP and 0.01% Triton X-100 (total volume 20 μL) in a 384-well plate. […] The HTRF signals were measured on a Tecan Infinite M1000 Pro microplate reader and plotted as a function of the peptide concentration. The data was analyzed using GraphPad Prism 6.0 and IC50 values were obtained by fitting the data to the dose-response inhibition curves. Data presented were the mean±SD of three independent experiments.
Expression of GST-NEMO was induced by the addition of isopropyl β-D-1-thiogalactopyranoside (150 μM final concentration). After five hours at 30° C., the cells were harvested by centrifugation. The cell pellet was suspended in 40 mL of lysis buffer (50 mM Tris-HCl, 100 mM NaCl, 0.5 mM MgCl2, 5 mM O-mercaptoethanol, 0.1% Triton-X-100, pH 8.0), 100 μg/mL lysozyme, 100 μL of DNAse I (New England BioLabs), and 100 μL of Halt Protease Inhibitor Cocktail (EDTA-free) (Thermo Scientific). This mixture was stirred at 4° C. for 30 min and briefly sonicated (2×10 s pulses). The crude lysate was centrifuged to yield a clear supernatant, which was directly loaded onto a glutathione-Sepharose 4B column (GE Healthcare). The bound protein was eluted from the column with 10 mM glutathione in 50 mM Tris-HCl (pH 8.0), concentrated to 0.5 mL with the use of Amicon Ultra-15 centrifugal filter units (MWCO 10 kDa), and dialyzed against PBS before flash freezing.
His-thx-IKKbKK/RR(701-745) was similarly expressed in E. coli BL21 (DE3) cells and purified by affinity chromatography using a HisTrap FF column (GE Healthcare). The fusion protein was eluted with 50 mM Tris-HCl (pH 8.0), 300 mM NaCl, 250 mM imidazole, 2 mM O-mercaptoethanol and treated with TEV protease (150 units for 1 mg of fusion protein) for 16 hours at 4° C. to remove the thioredoxin (thx). The resulting protease digestion mixture was reloaded onto the HisTrap column The flow-through fraction was collected and concentrated to about 2 mg/mL using Amicon Ultra-15 centrifugal filter units (MWCO 10 kDa). The IKKbKK/RR(701-745) peptide was biotinylated by treatment with a 10-fold molar excess of biotin-NHS at 4° C. overnight. The biotinylated IKKbKK/RR(701-745) was purified by reversed-phase HPLC equipped with a C18 column and stored frozen at −80° C.

Data set [3] concerns NF-κB activation in HEK293(Luc) cells. Nature of the data set: NF-κB luciferase assay. Type of data set: cell-based. The method, then: The ability of the bicyclic peptidyl inhibitors to inhibit NF-κB Signaling was analyzed. The ability of peptide 7 to enter the cell and block the intracellular NEMO-IKK interaction was assessed by using HEK293(Luc) cells, which harbor a luciferase gene under the transcriptional control of NF-κB. For the NF-κB Luciferase Assays, culture media was exchanged for DMEM containing 10% FBS and 1% penicillin/streptomycin the day before seeding to remove hygromycin B. HEK293(Luc) cells were seeded in 50 μL of assay medium (DMEM, 10% FBS, and 1% penicillin/streptomycin) in an opaque 96-well microplate (3000 cells per well) and incubated overnight. The peptide inhibitors were added to the cells the next day in 5 μL of assay medium and the plate was incubated at 37° c. for 2 h. After that, 5 μL of assay media containing recombinant TNFα (final concentration 5 ng/mL) was added to the wells. The plate was then returned to the incubator for 4 h at 37° c. Finally, 50 μL of ONE-Step luciferase assay reagent was added to each well and after 10 minutes the luminescence was measured on a Tecan Infinite M1000 Pro microplate reader. Data presented were the mean±SD of at least three independent experiments (n=6 for basal activities).

Data set [4] relates to A2780 cells. Nature of the data set: MTT cell viability assay, A2780. Type of data set: cell-based. The following applies: 72 hours. The method, then: For the MTT cell viability assay, HeLa, HEK293, A2780, OSE or A375 cells were seeded into a 96-well microplate (3000 cells/well) in 100 μl of respective growth media and incubated at 37° c. overnight. The next day, a serial dilution of peptide was added to each well in 10 μL of assay medium. The treated cells were incubated at 37° c. with 5% CO2 for 72 hours. Following compound treatment, 10 μL of MTT stock solution (Roche) was added to each well. After an additional 4 h at 37° C., 100 μL of SDS-HCl solubilizing solution was added to each well and the plate was returned to the incubator overnight at 37° c. A Tecan Infinite M1000 Pro microplate reader was used the following morning to measure the absorbance of the formazan product at 565 nm.
For orientation: Formazan colour is commonly taken as a measure of viable cells.

Data set [5] relates to HeLa cells.
Experimental: as §1
Data set [6] is described as follows: Proteolytic stability in human serum (analytical HPLC). The method, then: The proteolytic stability of peptide 7 was assessed by incubation in human serum at 37° C. and quantitation of the remaining peptide as a function of time by analytical HPLC.

A word on the half-life: it is the time needed for the level to fall by half in the phase considered.

Read-outs that look alike come from different tables or passages of the source. Numbered stars: 1 amine (or outer) side, 2 acyl side, 3 side chain; on linkers, the order of the positions; unused ones are H or OH. Bridge positions count the residues as written; N and C are the ends. Square brackets hold non-standard residues; d marks the D form. Peptide text beside a SMILES is read from it. Trimesoyl = O=C(c1cc(C(=O)[*:2])cc(C(=O)[*:3])c1)[*:1]; 2Nal = N[C@@H](Cc1ccc2ccccc2c1)C(=O)O; Dap = NC[C@H](N)C(=O)O; βAla = NCCC(=O)O

T1 sequence (Q9Y6K9 1-196): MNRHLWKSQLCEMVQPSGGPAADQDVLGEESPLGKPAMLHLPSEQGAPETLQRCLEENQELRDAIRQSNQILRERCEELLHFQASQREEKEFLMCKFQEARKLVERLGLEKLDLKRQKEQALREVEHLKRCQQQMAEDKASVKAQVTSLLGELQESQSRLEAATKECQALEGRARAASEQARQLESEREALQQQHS

Regarding `CC[C@H](C)[C@@H]1NC(=O)[C@H](Cc2c[nH]c3ccccc23)NC(=O)CNC(=O)c2cc3cc(c2)C(=O)NC[C@@H](C(=O)N[C@H](CCCNC(=N)N)C(=O)NCCC(=O)N[C@@H](CCCCN)C(=O)O)NC(=O)[C@H](CCCNC(=N)N)NC(=O)[C@H](CCCNC(=N)N)NC(=O)[C@H](CCCNC(=N)N)NC(=O)[C@H](Cc2ccc4ccccc4c2)NC(=O)[C@H](Cc2ccccc2)NC(=O)[C@H](CNC3=O)NC(=O)[C@H](Cc2ccc(O)cc2)NC1=O` [Peptide 5, Tm(GWIY)Δ(FΦRRRΔ)-rBK] (GWIY[Dap]F[2Nal]RRR[Dap][dR][βAla]K-OH; linker N-5-11 via Trimesoyl; C-terminus assumed), in data set [1], the “Permeability (%), cellular uptake efficiency” value (“Permeability (%)” for short) is given as 71% and the “cellular entry efficiency (in words)” value is listed as “slightly decreased the cellular entry efficiency”. `CC[C@H](C)[C@@H]1NC(=O)[C@H](Cc2c[nH]c3ccccc23)NC(=O)CNC(=O)c2cc3cc(c2)C(=O)NC[C@H](NC(=O)[C@H](Cc2ccc(O)cc2)NC1=O)C(=O)N[C@@H](Cc1ccccc1)C(=O)N[C@@H](Cc1ccc2ccccc2c1)C(=O)N[C@@H](CCCNC(=N)N)C(=O)N[C@@H](CCCNC(=N)N)C(=O)N[C@@H](CCCNC(=N)N)C(=O)N[C@H](C(=O)NCCC(=O)NCCC(=O)N[C@@H](CCCCN)C(=O)O)CNC3=O` [Peptide 2, Tm(GWIY)Δ(FΦRRRΔ)-BBK] (GWIY[Dap]F[2Nal]RRR[Dap][βAla][βAla]K-OH; linker N-5-11 via Trimesoyl; C-terminus assumed): the “Permeability (%)” value in data set [1] stood at 76%. Regarding `CC[C@H](C)[C@@H]1NC(=O)[C@H](Cc2c[nH]c3ccccc23)NC(=O)CNC(=O)c2cc3cc(c2)C(=O)NC[C@@H](C(=O)NCCC(=O)NCCC(=O)N[C@@H](CCCCN)C(=O)O)NC(=O)[C@H](CCCNC(=N)N)NC(=O)[C@@H](CCCNC(=N)N)NC(=O)[C@H](CCCNC(=N)N)NC(=O)[C@H](C)NC(=O)[C@H](Cc2ccccc2)NC(=O)[C@H](CNC3=O)NC(=O)[C@H](C)NC(=O)[C@H](Cc2ccc(O)cc2)NC1=O` [Peptide 16, Tm(GWIYA)Δ(FARrRΔ)-BBK] (GWIYA[Dap]FAR[dR]R[Dap][βAla][βAla]K-OH; linker N-6-12 via Trimesoyl; C-terminus assumed), in data set [2], the “NEMO-binding affinity on Ala substitution (in words)” value is recorded as “significantly de-creased the NEMO-binding affinity”. Regarding `CC[C@H](C)[C@@H]1NC(=O)[C@H](Cc2c[nH]c3ccccc23)NC(=O)CNC(=O)c2cc3cc(c2)C(=O)NC[C@H](NC(=O)[C@H](Cc2ccc(O)cc2)NC1=O)C(=O)N[C@@H](Cc1ccccc1)C(=O)N[C@@H](Cc1ccc2ccccc2c1)C(=O)N[C@@H](CCCNC(=N)N)C(=O)N[C@H](CCCNC(=N)N)C(=O)N[C@@H](CCCNC(=N)N)C(=O)N[C@H](C(=O)NCCC(=O)NCCC(=O)N[C@@H](CCCCN)C(=O)O)CNC3=O` [Peptide 6, Tm(GWIY)Δ(FΦRrRΔ)-BBK] (GWIY[Dap]F[2Nal]R[dR]R[Dap][βAla][βAla]K-OH; linker N-5-11 via Trimesoyl; C-terminus assumed), the “Permeability (%)” value in data set [1] is on record as 322%. Besides, the “increase of uptake efficiency” value in data set [1] (second arginine replaced with D-arginine, versus peptide 2) was found to be 4.2 fold.

Turning to `CC[C@H](C)[C@@H]1NC(=O)[C@H](C)NC(=O)CNC(=O)c2cc3cc(c2)C(=O)NC[C@@H](C(=O)NCCC(=O)NCCC(=O)N[C@@H](CCCCN)C(=O)O)NC(=O)[C@H](CCCNC(=N)N)NC(=O)[C@@H](CCCNC(=N)N)NC(=O)[C@H](CCCNC(=N)N)NC(=O)[C@H](Cc2ccc4ccccc4c2)NC(=O)[C@H](Cc2ccccc2)NC(=O)[C@H](CNC3=O)NC(=O)[C@H](C)NC(=O)[C@H](C)NC1=O` [Peptide 20, Tm(GAIAA)Δ(FΦRrRΔ)-BBK] (GAIAA[Dap]F[2Nal]R[dR]R[Dap][βAla][βAla]K-OH; linker N-6-12 via Trimesoyl; C-terminus assumed), the “effect on TNFα-induced luciferase activity (in words)” value in data set [3] is listed as “decreased the luciferase activity only at high concentrations”. In addition, the “fold lower NEMO-binding affinity / potency” value in data set [2] worked out at 16 fold. For the same compound, in data set [4], the “activity on A2780 viability (in words)” value is “much less active than peptide 7”. Turning to `CC[C@H](C)[C@@H]1NC(=O)[C@H](Cc2c[nH]c3ccccc23)NC(=O)CNC(=O)c2cc3cc(c2)C(=O)NC[C@@H](C(=O)NCCC(=O)NCCC(=O)N[C@@H](CCCCN)C(=O)O)NC(=O)[C@H](CCCNC(=N)N)NC(=O)[C@@H](CCCNC(=N)N)NC(=O)[C@H](CCCNC(=N)N)NC(=O)[C@H](Cc2ccc4ccccc4c2)NC(=O)[C@H](C)NC(=O)[C@H](CNC3=O)NC(=O)[C@H](C)NC(=O)[C@H](Cc2ccc(O)cc2)NC1=O` [Peptide 15, Tm(GWIYA)Δ(AΦRrRΔ)-BBK] (GWIYA[Dap]A[2Nal]R[dR]R[Dap][βAla][βAla]K-OH; linker N-6-12 via Trimesoyl; C-terminus assumed), the “NEMO-binding affinity on Ala substitution (in words)” value in data set [2] is “significantly de-creased the NEMO-binding affinity”.

As to `C[C@@H]1NC(=O)CNC(=O)c2cc3cc(c2)C(=O)NC[C@@H](C(=O)NCCC(=O)NCCC(=O)N[C@@H](CCCCN)C(=O)O)NC(=O)[C@H](CCCNC(=N)N)NC(=O)[C@@H](CCCNC(=N)N)NC(=O)[C@H](CCCNC(=N)N)NC(=O)[C@H](Cc2ccc4ccccc4c2)NC(=O)[C@H](Cc2ccccc2)NC(=O)[C@H](CNC3=O)NC(=O)[C@H](C)NC(=O)[C@H](C)NC(=O)[C@H](C)NC1=O` [Peptide 21, Tm(GAAAA)Δ(FΦRrRΔ)-BBK] (GAAAA[Dap]F[2Nal]R[dR]R[Dap][βAla][βAla]K-OH; linker N-6-12 via Trimesoyl; C-terminus assumed), the “effect on TNFα-induced luciferase activity (in words)” value in data set [3] is “decreased the luciferase activity only at high concentrations”. Moreover, the “fold lower NEMO-binding affinity / potency” value in data set [2] is listed as above 100 fold. For the same compound, in data set [4], the “activity on A2780 viability (in words)” value was “much less active than peptide 7”.

Regarding `CC[C@H](C)[C@@H]1NC(=O)[C@H](Cc2c[nH]c3ccccc23)NC(=O)CNC(=O)c2cc3cc(c2)C(=O)NC[C@H](NC(=O)[C@H](Cc2ccc(O)cc2)NC1=O)C(=O)N[C@@H](Cc1ccccc1)C(=O)N[C@@H](Cc1ccc2ccccc2c1)C(=O)N[C@@H](CCCNC(=N)N)C(=O)N[C@@H](CCCNC(=N)N)C(=O)N[C@@H](CCCNC(=N)N)C(=O)N[C@H](C(=O)N[C@@H](CCCNC(=N)N)C(=O)NCCC(=O)N[C@@H](CCCCN)C(=O)O)CNC3=O` [Peptide 4, Tm(GWIY)Δ(FΦRRRΔ)-RBK] (GWIY[Dap]F[2Nal]RRR[Dap]R[βAla]K-OH; linker N-5-11 via Trimesoyl; C-terminus assumed), in data set [1], the “Permeability (%)” value was 71% and the “cellular entry efficiency (in words)” value was “slightly decreased the cellular entry efficiency”. Turning to `CC[C@H](C)[C@@H]1NC(=O)[C@H](Cc2c[nH]c3ccccc23)NC(=O)CNC(=O)c2cc3cc(c2)C(=O)NC[C@H](NC(=O)[C@H](Cc2ccc(O)cc2)NC1=O)C(=O)N[C@@H](Cc1ccccc1)C(=O)N[C@@H](Cc1ccc2ccccc2c1)C(=O)N[C@@H](CCCNC(=N)N)C(=O)N[C@@H](CCCNC(=N)N)C(=O)N[C@@H](CCCNC(=N)N)C(=O)N[C@@H](CCCNC(=N)N)C(=O)N[C@H](C(=O)NCCC(=O)NCCC(=O)N[C@@H](CCCCN)C(=O)O)CNC3=O` [Peptide 3, Tm(GWIY)Δ(FΦRRRRΔ)-BBK] (GWIY[Dap]F[2Nal]RRRR[Dap][βAla][βAla]K-OH; linker N-5-12 via Trimesoyl; C-terminus assumed), the “cellular entry efficiency (in words)” value in data set [5] is “slightly decreased the cellular entry efficiency”. In the case of `CC[C@H](C)[C@H](NC(=O)[C@H](CCCCN)NC(=O)[C@@H](NC(=O)[C@H](CCC(N)=O)NC(=O)[C@@H](N)CCCNC(=N)N)[C@@H](C)CC)C(=O)N[C@@H](Cc1c[nH]c2ccccc12)C(=O)N[C@@H](Cc1ccccc1)C(=O)N[C@@H](CCC(N)=O)C(=O)N[C@@H](CC(N)=O)C(=O)N[C@@H](CCCNC(=N)N)C(=O)N[C@@H](CCCNC(=N)N)C(=O)N[C@@H](CCSC)C(=O)N[C@@H](CCCCN)C(=O)N[C@@H](Cc1c[nH]c2ccccc12)C(=O)N[C@@H](CCCCN)C(=O)N[C@@H](CCCCN)C(=O)NCC(=O)NCC(=O)N[C@H](C(=O)N[C@@H](C)C(=O)N[C@@H](CC(C)C)C(=O)N[C@@H](CC(=O)O)C(=O)N[C@@H](Cc1c[nH]c2ccccc12)C(=O)N[C@@H](CO)C(=O)N[C@@H](Cc1c[nH]c2ccccc12)C(=O)N[C@@H](CC(C)C)C(=O)N[C@@H](CCC(N)=O)C(=O)N[C@H](C(=O)N[C@@H](CCC(=O)O)C(=O)O)[C@@H](C)O)[C@@H](C)O` [Peptide 1, reference compound], the “Permeability (%)” value in data set [1] is recorded as 35%. Moreover, the half-life in data set [6] is around 20 min.
